{"source": "patent US9198429B2", "about": "“Heterocyclic alkanol-derivatives” (BAYER INTELLECTUAL PROPERTY GMBH, priority 2011, dated 2015)", "key": {"Pyricularia oryzae": {"test_system": "Pyricularia oryzae", "format": "in vivo", "settings": "application rate 1000 ppm, rice plants, protective, evaluation 6 days after inoculation"}, "Pyrenophora teres [1]": {"test_system": "Pyrenophora teres", "test": "Example C: Pyrenophora teres test (barley)/protective", "format": "in vivo", "settings": "500 ppm, protective, evaluation 7-9 days after inoculation"}, "[2]": {"settings": "for log P [b]: pH 2.7; for log P [c]: pH 7.8; for log P [a]: pH 2.3"}, "Sphaerotheca fuliginea [3]": {"test_system": "Sphaerotheca fuliginea", "test": "Example E: Sphaerotheca test (cucumber)/protective, comparison with EP-A 395 175", "format": "in vivo", "settings": "application rate 100 ppm, cucumber plants, protective, evaluation 7 days after inoculation"}, "Sphaerotheca fuliginea [4]": {"test_system": "Sphaerotheca fuliginea", "test": "Example A: Sphaerotheca test (cucumber)/protective", "format": "in vivo", "settings": "500 ppm, cucumber plants, protective, evaluation 7 days after inoculation"}, "[5]": {"test": "logP by HPLC on reversed-phase columns (EEC directive 79/831 Annex V.A8)"}, "Uromyces appendiculatus": {"test_system": "Uromyces appendiculatus", "test": "Example H: Uromyces test (beans)/protective", "format": "in vivo", "settings": "application rate 10 ppm, protective, evaluation 10 days after inoculation", "protocol": "To test for protective activity, young plants are sprayed with the preparation of active compound at the stated application rate. After the spray coating has dried on, the plants are inoculated with an aqueous spore suspension of bean rust (Uromyces appendiculatus) and then remain in an incubation cabin at 100% relative atmospheric humidity and 20° C. for one day. The plants are then placed in a greenhouse at 90% relative atmospheric humidity and a temperature of about 21° C. […]"}, "Pyrenophora teres [6]": {"test_system": "Pyrenophora teres", "test": "Example F: Pyrenophora teres test (barley)/protective, comparison with EP-A 409 418", "format": "in vivo", "settings": "application rate 500 ppm, protective, evaluation 7-9 days after inoculation"}, "Alternaria solani": {"test_system": "Alternaria solani", "test": "Example B: Alternaria test (tomato)/protective", "format": "in vivo", "settings": "500 ppm, tomato plants, protective, evaluation 7 days after inoculation"}}, "note": "“And” between values parts separate entries of the source, which are not always exact repeats. Equal values may be shown once."}
{"smiles": "CC(C)(C)C(O)(CCc1ccc(Cl)cc1)c1cncs1", "note": "(stereo not drawn) [drawing 38]", "values": [{"measurement": "Efficacy in %", "setting": "Pyricularia oryzae", "result": 22, "unit": "%"}]}
{"smiles": "COc1ccc(OC(C)(C)C(O)(c2cncs2)C(C)(C)C)cc1", "note": "(stereo not drawn) [Compound 13]", "values": [{"measurement": "Efficacy (%)", "setting": "Pyrenophora teres [1]", "result": 75, "unit": "%"}, {"measurement": "log P [b]", "setting": "[2]", "result": "3.49^[b]"}]}
{"smiles": "OC(c1ccc(Br)cc1)(c1cnco1)C1(Oc2ccc(F)cc2F)CC1", "note": "(stereo not drawn) [Compound 6]", "values": [{"measurement": "log P [b]", "setting": "[2]", "result": 3.59}, {"measurement": "log P [c]", "setting": "[2]", "result": 3.56}]}
{"smiles": "CC(C)(C)C(O)(c1cncs1)C(C)(C)Oc1ccc(I)cc1F", "note": "(stereo not drawn) [Compound 14]", "values": [{"measurement": "log P [b]", "setting": "[2]", "result": "4.7^[b]"}]}
{"smiles": "CC(C)(C)C(O)(COc1ccc(Cl)cc1)c1cncs1", "note": "(stereo not drawn)", "values": [{"measurement": "Efficacy in %", "setting": "Pyricularia oryzae", "result": 33, "unit": "%"}]}
{"smiles": "OC(c1ccc(Br)cc1)(c1cnco1)C1(Oc2ccccc2)CC1", "note": "(stereo not drawn) [Compound 5]", "values": [{"measurement": "log P [b]", "setting": "[2]", "result": 3.51}, {"measurement": "log P [c]", "setting": "[2]", "result": 3.48}]}
{"smiles": "CC(C)(C)C(O)(COc1ccc(Cl)cc1)Cc1cncs1", "note": "(stereo not drawn)", "values": [{"measurement": "Efficacy in %", "setting": "Sphaerotheca fuliginea [3]", "result": 5, "unit": "%"}]}
{"smiles": "OC(c1ccc(Br)cc1)(c1cnco1)C1(Oc2ccc(F)cc2)CC1", "note": "(stereo not drawn) [Compound 7]", "values": [{"measurement": "log P [b]", "setting": "[2]", "result": 3.54}, {"measurement": "log P [c]", "setting": "[2]", "result": 3.52}]}
{"smiles": "CC(C)(C)C(O)(c1cncs1)C(C)(C)Oc1ccc(Br)cc1", "note": "(stereo not drawn) [Compound 15]", "values": [{"measurement": "Efficacy (%)", "setting": "Sphaerotheca fuliginea [4]", "result": 99, "unit": "%"}, {"measurement": "log P [b]", "setting": "[2]", "result": "4.27^[b]"}]}
{"smiles": "CC(C)(Cc1ccc(C(F)(F)F)cc1)C(C)(O)c1cncs1", "note": "(stereo not drawn) [Compound 21]", "values": [{"measurement": "Efficacy (%)", "setting": "Pyrenophora teres [1]", "result": 70, "unit": "%"}, {"measurement": "log P [b]", "setting": "[2]", "result": "3.34^[b]"}]}
{"smiles": "CC(c1ccc(F)cc1Cl)C(O)(c1cnc(Cl)s1)C(C)(CF)CF", "note": "(stereo not drawn) [Compound 26]", "values": [{"measurement": "log P [a]", "setting": "[2]", "result": "4.51^[a]"}]}
{"smiles": "CC(C)[Si](c1ncc(C(O)(c2ccc(Cl)cc2)C2(Oc3ccccc3)CC2)o1)(C(C)C)C(C)C", "note": "(stereo not drawn) [Compound 9, (4-chlorophenyl)(1-phenoxycyclopropyl)[2-(triisopropylsilyl)-1,3-oxazol-5-yl]methanol]", "values": [{"measurement": "chromatographic logP", "setting": "[5]; pH 2.7", "result": 7.36}, {"measurement": "chromatographic logP", "setting": "[5]; pH 7.8", "result": 7.36}]}
{"smiles": "CC(c1ccc(F)cc1Cl)C(O)(c1cncs1)C(C)(CF)CF", "note": "(stereo not drawn) [Compound 25]", "values": [{"measurement": "Efficacy (%)", "setting": "Sphaerotheca fuliginea [4]", "result": 93, "unit": "%"}, {"measurement": "log P [b]", "setting": "[2]", "result": "3.46^[b]"}]}
{"smiles": "CC(C)(C)C(O)(CCc1ccc(Cl)cc1)c1cncs1", "note": "(stereo not drawn) [drawing 41, reference compound]", "values": [{"measurement": "Efficacy in %", "setting": "Uromyces appendiculatus", "result": 0, "unit": "%"}]}
{"smiles": "OC(c1cnco1)(c1ccc(F)cc1F)C1(Oc2ccc(F)cc2F)CC1", "note": "(stereo not drawn) [Compound 4]", "values": [{"measurement": "log P [b]", "setting": "[2]", "result": 3.07}, {"measurement": "log P [c]", "setting": "[2]", "result": 3.1}]}
{"smiles": "CC(C)(C)C(O)(CCc1ccc(Cl)cc1)c1cncs1", "note": "(stereo not drawn) [drawing 36, reference compound]", "values": [{"measurement": "Efficacy in %", "setting": "Pyrenophora teres [6]", "result": 0, "unit": "%"}]}
{"smiles": "CC(C)(Cc1ccc(Br)cc1)C(C)(O)c1cncs1", "note": "(stereo not drawn) [Compound 18]", "values": [{"measurement": "log P [b]", "setting": "[2]", "result": "3.22^[b]"}]}
{"smiles": "OC(Cc1cnc(Cl)s1)(c1ccc(Cl)cc1)C1(Oc2ccc(F)cc2)CC1", "note": "(stereo not drawn) [Compound 3, 1-(4-chlorophenyl)-2-(2-chloro-1,3-thiazol-5-yl)-1-[1-(4-fluorophenoxy)cyclopropyl]ethanol]", "values": [{"measurement": "chromatographic logP", "setting": "physchem; pH 2.7", "result": 4.55}, {"measurement": "chromatographic logP", "setting": "physchem; pH 7.8", "result": 4.53}]}
{"smiles": "CC(C)(C)C(O)(CCc1ccc(Cl)cc1)Cc1cncs1", "note": "(stereo not drawn)", "values": [{"measurement": "Efficacy in %", "setting": "Sphaerotheca fuliginea [3]", "result": 8, "unit": "%"}]}
{"smiles": "OC(Cc1cncs1)(c1ccc(Cl)cc1)C1(Oc2ccc(F)cc2)CC1", "note": "(stereo not drawn) [Compound 2, 1-(4-chlorophenyl)-1-[1-(4-fluorophenoxy)cyclopropyl]-2-(1,3-thiazol-5-yl)ethanol]", "values": [{"measurement": "Efficacy in %", "setting": "Sphaerotheca fuliginea [3]", "result": 93, "unit": "%"}, {"measurement": "Efficacy (%)", "setting": "Sphaerotheca fuliginea [4]", "result": 100, "unit": "%"}, {"measurement": "chromatographic logP", "setting": "physchem; pH 2.7", "result": 3.62}, {"measurement": "chromatographic logP", "setting": "physchem; pH 7.8", "result": 3.65}]}
{"smiles": "CC(C)(C)C(O)(c1cncs1)C(C)(C)Oc1ccc(Cl)cc1", "note": "(stereo not drawn) [Compound 16, 2-(4-chlorophenoxy)-2,4,4-trimethyl-3-(1,3-thiazol-5-yl)pentan-3-ol]", "values": [{"measurement": "Efficacy (%)", "setting": "Sphaerotheca fuliginea [4]", "result": 100, "unit": "%"}, {"measurement": "chromatographic logP", "setting": "physchem; pH 2.7", "result": 4.13}]}
{"smiles": "CC(c1ccc(Cl)cc1Cl)C(O)(c1cncs1)C(C)(C)C", "note": "(stereo not drawn) [Compound 23]", "values": [{"measurement": "Efficacy (%)", "setting": "Sphaerotheca fuliginea [4]", "result": 70, "unit": "%"}, {"measurement": "log P [a]", "setting": "[2]", "result": "4.4[a]"}]}
{"smiles": "CC(C)(Cc1ccc(Cl)cc1)C(C)(O)c1cncs1", "note": "(stereo not drawn) [Compound 22, 4-(4-chlorophenyl)-3,3-dimethyl-2-(1,3-thiazol-5-yl)butan-2-ol]", "values": [{"measurement": "Efficacy (%)", "setting": "Pyrenophora teres [1]", "result": "70% and 90%"}, {"measurement": "Efficacy (%)", "setting": "Sphaerotheca fuliginea [4]", "result": 75, "unit": "%"}, {"measurement": "Efficacy in %", "setting": "Pyrenophora teres [6]", "result": 70, "unit": "%"}, {"measurement": "Efficacy in %", "setting": "Uromyces appendiculatus", "result": 80, "unit": "%"}, {"measurement": "Efficacy in %", "setting": "Pyricularia oryzae", "result": 78, "unit": "%"}, {"measurement": "chromatographic logP", "setting": "physchem; pH 2.7", "result": 3.11}]}
{"smiles": "OC(c1ccc(Cl)cc1)(c1cnco1)C1(Oc2ccccc2)CC1", "note": "(stereo not drawn) [Compound 8, (4-chlorophenyl)(1,3-oxazol-5-yl)(1-phenoxycyclopropyl)methanol]", "values": [{"measurement": "chromatographic logP", "setting": "physchem; pH 2.7", "result": 3.37}, {"measurement": "chromatographic logP", "setting": "physchem; pH 7.8", "result": 3.43}]}
{"smiles": "CC(C)(Cc1ccc(I)cc1)C(C)(O)c1cncs1", "note": "(stereo not drawn) [Compound 20]", "values": [{"measurement": "Efficacy (%)", "setting": "Alternaria solani", "result": 90, "unit": "%"}, {"measurement": "log P [b]", "setting": "[2]", "result": "3.45^[b]"}]}
{"smiles": "CC(C)(Cc1ccc(OC(F)(F)F)cc1)C(C)(O)c1cncs1", "note": "(stereo not drawn) [Compound 17]", "values": [{"measurement": "Efficacy (%)", "setting": "Alternaria solani", "result": 90, "unit": "%"}]}
{"smiles": "OC(c1cnc(Cl)s1)(c1ccc(F)cc1F)C1(Oc2ccc(F)cc2F)CC1", "note": "(stereo not drawn) [Compound 12, (2-chloro-1,3-thiazol-5-yl)[1-(2,4-difluorophenoxy)cyclopropyl](2,4-difluorophenyl)methanol]", "values": [{"measurement": "chromatographic logP", "setting": "physchem; pH 2.7", "result": 4.29}, {"measurement": "chromatographic logP", "setting": "physchem; pH 7.8", "result": 4.23}]}
{"smiles": "OC(c1cncs1)(c1ccc(F)cc1F)C1(Oc2ccc(F)cc2F)CC1", "note": "(stereo not drawn) [Compound 11, [1-(2,4-difluorophenoxy)cyclopropyl](2,4-difluorophenyl)1,3-thiazol-5-ylmethanol]", "values": [{"measurement": "Efficacy (%)", "setting": "Sphaerotheca fuliginea [4]", "result": 95, "unit": "%"}, {"measurement": "chromatographic logP", "setting": "physchem; pH 2.7", "result": 3.35}, {"measurement": "chromatographic logP", "setting": "physchem; pH 7.8", "result": 3.3}]}
{"smiles": "CC(C)(Cc1ccc(F)cc1Cl)C(C)(O)c1cncs1", "note": "(stereo not drawn) [Compound 19]", "values": [{"measurement": "log P [b]", "setting": "[2]", "result": "3.14^[b]"}]}
